Data reported in patent publication US20260176319A1, “PEPTIDE ANALOGS AND METHODS OF USING THE SAME” (Kallyope, Inc., priority 2024, published 2026).
Starred links: 1 amine or outer side, 2 acyl side, 3 side chain; linkers in the order of their positions; H or OH if unused. Non-standard residues stand in square brackets, D forms with d. Residues, ends and D or L forms follow the SMILES beside them. *: point of attachment. Trp(7-Me) = Cc1cccc2c(C[C@H](N)C(=O)O)c[nH]c12; C20 diacid = O=C(O)CCCCCCCCCCCCCCCCCCC(=O)*; γGlu = O=C(O)[C@H](CCC(=O)[*:2])N[*:1]; NMeH = CN[C@@H](Cc1c[nH]cn1)C(=O)O; Nle = CCCC[C@H](N)C(=O)O; β3hA = C[C@H](N)CC(=O)O; AEEA = NCCOCCOCC(=O)O; βAla = NCCC(=O)O

Key:
[1] = Food intake and body weight after subcutaneous administration in mice, 16 hours (Example A-2b); type: in vivo; details: male C57BL/6J mice, single subcutaneous dose, peptide 500 nmol/kg, high fat diet
Excerpt: Male C57BL/6J mice, approximately 10 weeks old (Jackson Laboratory), were group housed in a 12-h light cycle room (6:00 AM on, 6:00 PM off) upon arrival and acclimated to the facility for a minimum of 1 week prior to the study. Animals were provided standard rodent chow (PicoLab Rodent Diet, 5053) ad libitum. Animals were single caged for a minimum of 3 days prior to the study. During the period prior to the study day, mice were exposed to one pellet of high fat diet (Research Diets D12492i) to avoid any effects of novelty in the study. On three separate days during this run-in period, mice were given one dose of phosphate-buffered saline (PBS; 5 mL/kg) by subcutaneous injection to acclimate them to the procedure. For baseline measures, pre-weighed meals of standard rodent chow were provided to each animal following acclimation dosing at 3:30 PM, and body weight was recorded. The next morning at 9:30 AM, food intake and body weight measurements were recorded at 16 hours following the presentation of the pre-weighed meal. These measurements and the resulting body weight changes were then used to assign mice to balanced cohorts. On the day of the study, mice were weighed and given a subcutaneous dose of either vehicle (PBS, 5 mL/kg; pH 5.0-8.5) or a peptide of the disclosure (500 nmol/kg; pH 5.0-8.5). Following dosing, a pre-weighed high fat diet was provided. Food intake and body weight measurements were taken at 16 hours following the provision of the pre-weighed high fat diet. […] Table 6 below describes the percent reduction in food intake and the percent body weight (BW) change with peptides as measured relative to the vehicle group.

human GRP receptors = target: T1, human GRP receptors (Homo sapiens, UniProt P30550); assay: IP1 GRPR activity: HTRF IP1-Gq assay in U2OS cells stably expressing human GRP receptors; type: cell-based; details: 90 minutes incubation, read-out: hIP1 GRPR EC50
T1 construct: host or cells: U2OS

[2] = Pharmacokinetics after intravenous peptide administration in mice; set-up: species or system C57BL/6 mice; details: mouse, in vivo, C57BL/6 mice, IV 2 mg/kg, formulation of 0.4 mg/mL; for clearance: read-out: CL; for half-life: read-out: T1/2 (converted)
Method: GPR-10 and peptides were dosed IV at 2 mg/kg as a formulation of 0.4 mg/mL in […]+65% water (pH 6-7).

T1 sequence (P30550 whole entry): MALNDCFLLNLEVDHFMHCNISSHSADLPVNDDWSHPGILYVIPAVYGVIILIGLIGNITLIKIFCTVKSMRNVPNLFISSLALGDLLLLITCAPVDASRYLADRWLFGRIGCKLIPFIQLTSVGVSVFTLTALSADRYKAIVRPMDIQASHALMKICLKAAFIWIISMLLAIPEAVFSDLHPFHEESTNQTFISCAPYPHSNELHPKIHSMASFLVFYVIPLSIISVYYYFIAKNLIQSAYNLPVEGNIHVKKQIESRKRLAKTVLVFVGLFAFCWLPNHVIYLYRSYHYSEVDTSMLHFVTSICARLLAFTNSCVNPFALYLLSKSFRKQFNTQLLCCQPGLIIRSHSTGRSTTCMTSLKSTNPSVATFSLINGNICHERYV

SMILES | % Body Weight Change at 16 hours (compared with vehicle) [1] | % Reduction in Cumulative Food Intake over 16 hours (compared with vehicle) [1] | EC50 (human GRP receptors) | clearance [2] | half-life [2]
CCCC[C@H](NC(=O)[C@H](CC(C)C)NC(=O)[C@H](Cc1c[nH]cn1)N(C)C(=O)C[C@H](C)NC(=O)[C@@H](NC(=O)[C@H](C)NC(=O)[C@H](Cc1c[nH]c2c(C)cccc12)NC(=O)[C@H](Cc1c[nH]cn1)NC(=O)[C@H](CC(=O)O)NC(=O)CNC(=O)COCCOCCNC(=O)COCCOCCNC(=O)CC[C@H](NC(=O)CC[C@H](NC(=O)CCCCCCCCCCCCCCCCCCC(=O)O)C(=O)O)C(=O)O)C(C)C)C(N)=O [Peptide 278, Eicosanedioyl-γGlu-γGlu-OEG-OEG-Gly-Asp-His-7MeTrp-Ala-Val-BABA-NMeHis-Leu-Nle-NH2] ({C20 diacid-γGlu-γGlu-AEEA-AEEA}-GDH[Trp(7-Me)]AV[β3hA][NMeH]L[Nle]-NH2) | −12% | 63% | 10.8 nM |  | 
CCCC[C@H](NC(=O)[C@H](CC(C)C)NC(=O)[C@H](Cc1c[nH]cn1)NC(=O)CCNC(=O)[C@@H](NC(=O)[C@H](C)NC(=O)[C@H](Cc1c[nH]c2c(C)cccc12)NC(=O)[C@H](Cc1c[nH]cn1)NC(=O)[C@H](CCCNC(=N)N)NC(=O)CNC(=O)COCCOCCNC(=O)COCCOCCNC(=O)CC[C@H](NC(=O)CCCCCCCCCCCCCCCCCCC(=O)O)C(=O)O)C(C)C)C(N)=O [Peptide 242, Eicosanedioyl-γGlu-OEG-OEG-Gly-Arg-His-7MethylTrp-Ala-Val-β-Ala-His-Leu-Nle-NH2] ({C20 diacid-γGlu-AEEA-AEEA}-GRH[Trp(7-Me)]AV[βAla]HL[Nle]-NH2) | −9% | 55% |  |  | 
CCCC[C@H](NC(=O)[C@H](CC(C)C)NC(=O)[C@H](Cc1c[nH]cn1)N(C)C(=O)C[C@H](C)NC(=O)[C@@H](NC(=O)[C@H](C)NC(=O)[C@H](Cc1c[nH]c2c(C)cccc12)NC(=O)[C@H](Cc1c[nH]cn1)NC(=O)[C@H](CCC(=O)O)NC(=O)[C@H](CO)NC(=O)COCCOCCNC(=O)COCCOCCNC(=O)CC[C@H](NC(=O)CC[C@H](NC(=O)CCCCCCCCCCCCCCCCCCC(=O)O)C(=O)O)C(=O)O)C(C)C)C(N)=O [Peptide 277, Eicosanedioyl-γGlu-γGlu-OEG-OEG-Ser-Glu-His-7MeTrp-Ala-Val-BABA-NMeHis-Leu-Nle-NH2] ({C20 diacid-γGlu-γGlu-AEEA-AEEA}-SEH[Trp(7-Me)]AV[β3hA][NMeH]L[Nle]-NH2) | −12% | 69% |  |  | 
CCCC[C@H](NC(=O)[C@H](CC(C)C)NC(=O)[C@H](Cc1c[nH]cn1)NC(=O)CCNC(=O)[C@@H](NC(=O)[C@H](C)NC(=O)[C@H](Cc1c[nH]c2c(C)cccc12)NC(=O)[C@H](Cc1c[nH]cn1)NC(=O)[C@H](CCC(=O)O)NC(=O)[C@@H](CO)NC(=O)[C@H](CCC(=O)O)NC(=O)COCCOCCNC(=O)COCCOCCNC(=O)CC[C@H](NC(=O)CC[C@H](NC(=O)CCCCCCCCCCCCCCCCCCC(=O)O)C(=O)O)C(=O)O)C(C)C)C(N)=O [Peptide 248, Eicosanedioyl-γGlu-γGlu-OEG-OEG-Glu-D-Ser-Glu-His-7MeTrp-Ala-Val-β-Ala-His-Leu-Nle-NH2] ({C20 diacid-γGlu-γGlu-AEEA-AEEA}-E[dS]EH[Trp(7-Me)]AV[βAla]HL[Nle]-NH2) | −9% | 54% |  | 0.12 mL/min/kg | 9.7 h
CCCC[C@H](NC(=O)[C@H](CC(C)C)NC(=O)[C@H](Cc1c[nH]cn1)NC(=O)CCNC(=O)[C@@H](NC(=O)[C@H](C)NC(=O)[C@H](Cc1c[nH]c2ccccc12)NC(=O)[C@H](Cc1c[nH]cn1)NC(=O)[C@H](CCC(N)=O)NC(=O)CNC(=O)COCCOCCNC(=O)COCCOCCNC(=O)CC[C@H](NC(=O)CCCCCCCCCCCCCCCCCCC(=O)O)C(=O)O)C(C)C)C(N)=O [Peptide 241, Eicosanedioyl-γGlu-OEG-OEG-Gly-Gln-His-Trp-Ala-Val-β-Ala-His-Leu-Nle-NH2] ({C20 diacid-γGlu-AEEA-AEEA}-GQHWAV[βAla]HL[Nle]-NH2) | −10% | 74% |  | 0.23 mL/min/kg | 7 h
